Source: PubChem BioAssay AID1259407 (Chemical Carcinogenesis Research Information System (CCRIS), 2018)
Active and inactive are the calls of the source. No rule for the calls is given here.

Tested on: CCRIS mutagenicity, Ames/micronucleus/aberration tests
Experiment: CCRIS mutagenicity studies
[1] = Test System: AMES SALMONELLA TYPHIMURIUM, Strain/Indicator: TA1535, Metabolic Activation: NONE, Method: PREINCUBATION
[2] = Test System: AMES SALMONELLA TYPHIMURIUM, Strain/Indicator: TA1537, Metabolic Activation: NONE, Method: PREINCUBATION
[3] = Test System: AMES SALMONELLA TYPHIMURIUM, Strain/Indicator: TA1538, Metabolic Activation: NONE, Method: PREINCUBATION
[4] = Test System: E. COLI, Strain/Indicator: WP2 UVRA, Metabolic Activation: NONE, Method: PREINCUBATION

Cc1cccc(Nc2cc(Cl)nc(SCC(=O)O)n2)c1C
mutagenic call (Test System: AMES SALMONELLA TYPHIMURIUM, Strain/Indicator: TA98, Metabolic Activation: NONE): inactive; negative
mutagenic call (Test System: AMES SALMONELLA TYPHIMURIUM, Strain/Indicator: TA98, Metabolic Activation: RAT, LIVER, S-9, AROCLOR 1254): inactive; negative
mutagenic call (Test System: AMES SALMONELLA TYPHIMURIUM, Strain/Indicator: TA102, Metabolic Activation: NONE): inactive; negative
mutagenic call (Test System: AMES SALMONELLA TYPHIMURIUM, Strain/Indicator: TA102, Metabolic Activation: RAT, LIVER, S-9, AROCLOR 1254): inactive; negative
mutagenic call (Test System: AMES SALMONELLA TYPHIMURIUM, Strain/Indicator: TA104, Metabolic Activation: NONE): inactive; negative
mutagenic call (Test System: AMES SALMONELLA TYPHIMURIUM, Strain/Indicator: TA104, Metabolic Activation: RAT, LIVER, S-9, AROCLOR 1254): inactive; negative
mutagenic call (Test System: UDS RAT HEPATOCYTES, Strain/Indicator: BROMODEOXYURIDINE INCORP, Metabolic Activation: NONE): active; positive
mutagenic call (Test System: UDS RAT HEPATOCYTES, Strain/Indicator: BROMODEOXYURIDINE INCORP, Metabolic Activation: NONE, Method: FLOW CYTOMETRIC ANALYSIS): inactive; negative
mutagenic call (Test System: UDS RAT HEPATOCYTES, Strain/Indicator: THY INCORP, Metabolic Activation: NONE, Method: AUTORADIOGRAPHY): inactive; negative
mutagenic call (Test System: UDS RAT HEPATOCYTES, Strain/Indicator: THY INCORP, Metabolic Activation: NONE, Method: LIQUID SCINTILLATION COUNTING): active; positive

CC(C)C(=O)Nc1ccccc1
mutagenic call (Test System: AMES SALMONELLA TYPHIMURIUM, Strain/Indicator: TA100, Metabolic Activation: NONE, Method: STANDARD PLATE): inactive; negative

COc1ccccc1[N+](=O)[O-]
mutagenic call (End Point: IN VITRO CHROMOSOMAL ABERRATIONS, Test System: CHINESE HAMSTER OVARY CELLS, Metabolic Activation: RAT, LIVER, S-9, AROCLOR 1254): active; positive; precipitation occurred at all doses
mutagenic call (End Point: IN VITRO CHROMOSOMAL ABERRATIONS, Test System: CHL CELLS, Metabolic Activation: RAT, LIVER, S-9, SODIUM PHENOBARBITAL AND 5,6-BENZOFLAVONE): active; positive (structural changes)
mutagenic call (Test System: AMES SALMONELLA TYPHIMURIUM, Strain/Indicator: TA97, Metabolic Activation: HAMSTER LIVER S-9, AROCLOR 1254 (10%), Method: PREINCUBATION): inactive; negative
mutagenic call (Test System: AMES SALMONELLA TYPHIMURIUM, Strain/Indicator: TA97, Metabolic Activation: NONE, Method: PREINCUBATION): inactive; negative
mutagenic call (Test System: AMES SALMONELLA TYPHIMURIUM, Strain/Indicator: TA97, Metabolic Activation: RAT LIVER S-9, AROCLOR 1254 (10%), Method: PREINCUBATION): inactive; negative
mutagenic call (Test System: AMES SALMONELLA TYPHIMURIUM, Strain/Indicator: TA98, Metabolic Activation: HAMSTER LIVER S-9, AROCLOR 1254 (10%), Method: PREINCUBATION): inactive; negative
mutagenic call (Test System: AMES SALMONELLA TYPHIMURIUM, Strain/Indicator: TA98, Metabolic Activation: RAT LIVER S-9, AROCLOR 1254 (10%), Method: PREINCUBATION): inactive; negative
mutagenic call (Test System: AMES SALMONELLA TYPHIMURIUM, Strain/Indicator: TA98, Metabolic Activation: RAT LIVER S-9, PHENOBARBITAL AND BETA-NAPHTHOFLAVONE, Method: PREINCUBATION): inactive; negative
mutagenic call (Test System: AMES SALMONELLA TYPHIMURIUM, Strain/Indicator: TA98, Metabolic Activation: RAT, LIVER, S-9, KANECHLOR 500, Method: PREINCUBATION): inactive; negative
mutagenic call (Test System: AMES SALMONELLA TYPHIMURIUM, Strain/Indicator: TA100, Metabolic Activation: HAMSTER LIVER S-9, AROCLOR 1254 (10%), Method: PREINCUBATION): active; positive
mutagenic call (Test System: AMES SALMONELLA TYPHIMURIUM, Strain/Indicator: TA100, Metabolic Activation: HAMSTER, LIVER, S-9, AROCLOR 1254, FLAVIN MONONUCLEOTIDE, Method: PREINCUBATION): inactive; negative
mutagenic call (Test System: AMES SALMONELLA TYPHIMURIUM, Strain/Indicator: TA100, Metabolic Activation: HAMSTER, LIVER, S-9, AROCLOR 1254, Method: PREINCUBATION): inactive; negative
mutagenic call (Test System: AMES SALMONELLA TYPHIMURIUM, Strain/Indicator: TA100, Metabolic Activation: RAT LIVER S-9, AROCLOR 1254 (10%), Method: PREINCUBATION): active; positive
mutagenic call (Test System: AMES SALMONELLA TYPHIMURIUM, Strain/Indicator: TA100, Metabolic Activation: RAT LIVER S-9, PHENOBARBITAL AND BETA-NAPHTHOFLAVONE, Method: PREINCUBATION): active; positive
mutagenic call (Test System: AMES SALMONELLA TYPHIMURIUM, Strain/Indicator: TA100, Metabolic Activation: RAT, LIVER, S-9, AROCLOR 1254, FLAVIN MONONUCLEOTIDE, Method: PREINCUBATION): inactive; negative
mutagenic call (Test System: AMES SALMONELLA TYPHIMURIUM, Strain/Indicator: TA100, Metabolic Activation: RAT, LIVER, S-9, AROCLOR 1254, Method: STANDARD PLATE): active; positive
mutagenic call (Test System: AMES SALMONELLA TYPHIMURIUM, Strain/Indicator: TA100, Metabolic Activation: RAT, LIVER, S-9, KANECHLOR 500, Method: PREINCUBATION): active; positive
mutagenic call (Test System: AMES SALMONELLA TYPHIMURIUM, Strain/Indicator: TA1535, Metabolic Activation: HAMSTER LIVER S-9, AROCLOR 1254 (10%), Method: PREINCUBATION): inactive; negative
mutagenic call [1]: inactive; negative
mutagenic call (Test System: AMES SALMONELLA TYPHIMURIUM, Strain/Indicator: TA1535, Metabolic Activation: RAT LIVER S-9, AROCLOR 1254 (10%), Method: PREINCUBATION): inactive; negative
mutagenic call (Test System: AMES SALMONELLA TYPHIMURIUM, Strain/Indicator: TA1535, Metabolic Activation: RAT LIVER S-9, PHENOBARBITAL AND BETA-NAPHTHOFLAVONE, Method: PREINCUBATION): inactive; negative
mutagenic call (Test System: AMES SALMONELLA TYPHIMURIUM, Strain/Indicator: TA1537, Metabolic Activation: HAMSTER LIVER S-9, AROCLOR 1254 (10%), Method: PREINCUBATION): inactive; negative
mutagenic call [2]: inactive; negative
mutagenic call (Test System: AMES SALMONELLA TYPHIMURIUM, Strain/Indicator: TA1537, Metabolic Activation: RAT LIVER S-9, AROCLOR 1254 (10%), Method: PREINCUBATION): inactive; negative
mutagenic call (Test System: AMES SALMONELLA TYPHIMURIUM, Strain/Indicator: TA1537, Metabolic Activation: RAT LIVER S-9, PHENOBARBITAL AND BETA-NAPHTHOFLAVONE, Method: PREINCUBATION): inactive; negative
mutagenic call [3]: active; positive
mutagenic call (Test System: E.COLI, Strain/Indicator: WP2UVRA, Metabolic Activation: NONE, Method: PREINCUBATION): inactive; negative
mutagenic call (Test System: E.COLI, Strain/Indicator: WP2UVRA, Metabolic Activation: RAT LIVER S-9, PHENOBARBITAL AND BETA-NAPHTHOFLAVONE, Method: PREINCUBATION): inactive; negative

CCCCN(N=O)C(=O)NC
mutagenic call [4]: active; positive
mutagenic call (Test System: E. COLI, Strain/Indicator: WP2 UVRA, Metabolic Activation: RAT, LIVER, S-9, PHENOBARBITAL AND 5,6-BENZOFLAVONE, Method: PREINCUBATION): active; positive

CC(C)(S)C(=O)N[C@@H](CS)C(=O)O
mutagenic call (Test System: AMES SALMONELLA TYPHIMURIUM, Strain/Indicator: TA98, Metabolic Activation: NONE, Method: PREINCUBATION): inactive; negative
mutagenic call (Test System: AMES SALMONELLA TYPHIMURIUM, Strain/Indicator: TA98, Metabolic Activation: RAT, LIVER, S-9, Method: PREINCUBATION): inactive; negative
mutagenic call (Test System: AMES SALMONELLA TYPHIMURIUM, Strain/Indicator: TA100, Metabolic Activation: NONE, Method: PREINCUBATION): inactive; negative
mutagenic call (Test System: AMES SALMONELLA TYPHIMURIUM, Strain/Indicator: TA100, Metabolic Activation: RAT, LIVER, S-9, Method: PREINCUBATION): inactive; negative
mutagenic call [1]: inactive; negative
mutagenic call (Test System: AMES SALMONELLA TYPHIMURIUM, Strain/Indicator: TA1535, Metabolic Activation: RAT, LIVER, S-9, Method: PREINCUBATION): inactive; negative
mutagenic call [2]: inactive; negative
mutagenic call (Test System: AMES SALMONELLA TYPHIMURIUM, Strain/Indicator: TA1537, Metabolic Activation: RAT, LIVER, S-9, Method: PREINCUBATION): inactive; negative
mutagenic call [3]: inactive; negative
mutagenic call (Test System: AMES SALMONELLA TYPHIMURIUM, Strain/Indicator: TA1538, Metabolic Activation: RAT, LIVER, S-9, Method: PREINCUBATION): inactive; negative
mutagenic call (Test System: E. COLI, Strain/Indicator: WP2, Metabolic Activation: NONE, Method: PREINCUBATION): inactive; negative
mutagenic call [4]: inactive; negative
mutagenic call (Test System: E. COLI, Strain/Indicator: WP2 UVRA, Metabolic Activation: RAT, LIVER, S-9, Method: PREINCUBATION): inactive; negative
